In PMC7041945, “Misfolded proteins bind and activate death receptor 5 to trigger apoptosis during unresolved endoplasmic reticulum stress” (eLife, 2020):
Residues, ends and D or L forms follow the SMILES beside them. *: point of attachment. Cbz = O=C(OCc1ccccc1)*; CH2F = FC*

Experiments:
HCT116 cells = experiment: Annexin V (and SytoxBlue) flow cytometry for apoptosis; assay type: cell-based, Homo sapiens; conditions: for Annexin V +, Sytox Blue + cells / Annexin V +, Sytox Blue - cells / Annexin V -, Sytox Blue - cells: transfected 24 hr, no z-VAD
Protocol: Cells seeded in a 6-well plate were transfected with the specified plasmid for 24 hr and harvested via trypsinization in complete media to allow a 30 min recovery at 37°C. The samples were then centrifuged at 500xg for 5 min and resuspended In 150 μl of a 1:20 dilution of Annexin V-AlexaFluor 647 conjugate (Thermo Scientific #A23204). Samples were transferred to a 96-well U-bottom plate and incubated in the dark for 15 min at RT. The distribution of apoptotic cells was determined by flow cytometry on a BD LSR II.

[1] = system: DR5 / ERGIC53 / giantin in HCT116 cells; experiment: Immunofluorescence co-localization (Pearson's correlation per cell); assay type: cell-based, Homo sapiens; conditions: for Pearson's correlation per cell of GFP-tagged peptide with DR5 / Pearson's correlation per cell of GFP-tagged peptide with ERGIC: HCT116, 24 hr post-transfection; for Pearson's correlation per cell of GFP-tagged peptide with DR5 / Pearson's correlation per cell of GFP-tagged peptide with ERGIC / Pearson's correlation per cell between DR5 and ERGIC: Mean ± SEM; for Pearson's correlation per cell between DR5 and ERGIC: HCT116 expressing GFP-tagged peptide, 24 hr
Protocol: HCT116 were seeded at 25000 cells per well in an 8-well glass-bottom μSlide (Ibidi 80827) pre-coated with Collagen IV (Sigma-Aldrich C6745, 0.03 mg/ml in PBS incubated for 30 min at RT, and then rinsed off with PBS x 3) in growth media 18 hr prior to transfection (see above for protocol). 24 hr post-transfection, the cells were fixed using 4% paraformaldehyde (PFA, Electron Microscopy Sciences) or methanol, depending on the antibody combination used for immunostaining (see table below). Samples were protected from light after fixation to preserve GFP fluorescence.
For fixation with 4% PFA, 32% PFA was added directly to the well in growth media for a 1:8 dilution and incubated for 10–15 min at RT. Cells were then permeabilized with PHEM buffer (60 mM PIPES, 25 mM HEPES, 10 mM EGTA, 2 mM MgCl2-hexahydrate, pH 6.9) containing 0.1% Triton-X100 for 10 min at RT for three washes.
For fixation with methanol, media was removed and cells were washed with cold PBS. Then methanol (pre-cooled at −20°C) was added to the well and incubated at −20°C for 3–4 min. The methanol was promptly aspirated and replaced with PHEM buffer (without Triton X-100), followed by two more 10 min washes with PHEM at RT.
To block against non-specific antibody interactions, cells were rinsed in PHEM (without 0.1% Triton X-100) and then incubated with PHEM containing 2% normal goat serum (Jackson Immunoresearch Laboratories, 005-000-121) for 1 hr at RT. Primary antibodies were incubated in blocking solution overnight at 4°C at the dilution noted in the table above. Cells were then washed with PHEM buffer for 10 min at RT x three and incubated with secondary antibodies, anti-mouse-AlexaFluor546 (Invitrogen A11030) and anti-rabbit-AlexaFluor633 (Invitrogen A21071), diluted 1:1000 in PHEM with 2% normal goat serum. (Secondary antibody solutions were centrifuged at 15000xg for 20 mins at 4°C to remove aggregates prior to incubating with cell samples.) After a 1 hr incubation at RT, cells were washed with PHEM buffer once, then incubated with PHEM buffer containing nuclear stain (DAPI, Molecular Probes, Eugene, OR, D-1306, 5 μg/mL), and finally rinsed with PHEM buffer twice before imaging.
Samples were imaged on a spinning disk confocal with Yokogawa CSUX A1 scan head, Andor iXon EMCCD camera, and 40x Plan Apo air Objective NA 0.95 or 100x ApoTIRF objective NA 1.49 (Nikon).
From the 405 nm channel, cell nuclei were identified as primary objects using maximum correlation thresholding (MCT) and shape to distinguish clumped objects. Secondary objects were outlined using propagation from the nuclei (DAPI) after applying MCT from the 488 nm, 561 nm, and 633 nm channels. Tertiary objects for each cell was identified as the mask of each nucleus subtracted from the mask of its corresponding secondary object in each channel, yielding masks for intracellular GFP-tagged protein from the 488 nm channel, for intracellular DR5 from the 561 nm channel, and for the organelle marker in the 633 nm channel. For overlap between DR5 and MPZ/RHO-GFP, Pearson’s correlation coefficients were calculated within the MPZ/RHO mask for each cell to filter out untransfected cells. For overlap between DR5/MPZ and organelle markers, Pearson’s correlation coefficients were calculated within tertiary objects for the organelle marker in GFP+ cells. Statistical analyses for all data sets were performed using GraphPad Prism 6.0.

DR5 ECD = experiment: Peptide array binding of Fc-tagged DR5 ectodomain (MPZ and RHO sequences; amino acid enrichment); parameters: species or system human; conditions: rhodopsin EL1-EL3 peptide array; for Corrected rawintden - min: min subtracted; for normalized (binding intensity): normalized from corrected rawintden - min
Protocol: Peptide arrays were purchased from the MIT Biopolymers Laboratory as described previously in [Karagöz et al. (2017)] and [Gardner and Walter (2011)]. The sequences of each protein were tiled from N- to C-terminus in 18-amino-acid-long peptides shifting by three amino acids from the previous spot. The arrays were incubated in methanol for 10 min, and then washed in binding buffer (50 mM HEPES pH 7.2, 250 mM NaCl, 10% glycerol) for 10 min at room temperature x 3. 500 nM of Fc-tagged DR5 extracellular domain (ECD, a kind gift from Scot Marsters) was incubated with the array in binding buffer at room temperature for 1 hr. Then, the array was washed three times for 10 min with binding buffer to remove unbound protein. The bound DR5 ECD was then transferred onto a nitrocellulose membrane via a semi-dry transfer apparatus (Owl HEP-1) at 80 mA for 45 min at 4°C. The membrane was then blocked with 1xPBST with 5% milk for 1 hr at room temperature and probed with 1:1000 anti-Fc (One World Lab #603–510) overnight at 4°C followed by 1:10000 anti-mouse IgG-HRP (Promega #W4021) for 1 hr at RT. The membrane was imaged using chemi-luminescence with the Bio-Rad Universal Hood II Gel Doc below saturating pixel intensities. The signal of each spot was quantified using Max Quant and normalized to the maximum intensity of all the spots on the same array.

[2] = system: caspase 8 in HCT116 lysates; experiment: Caspase 8 activity (caspase glo 8) of cell lysates / IP inputs; assay type: cell-based, Homo sapiens; conditions: for average fold change relative to empty: HCT116, rep 1, average of 4 dilutions; for norm RLUs: rep 2, normalized by lysate quant
Protocol: Cells harvested from a 6-well plate were resuspended in 100 μl of lysis buffer (30 mM HEPES pH 7.2, 150 mM NaCl, 1% Triton X-100) and lysed via needle shearing (25G, 10 passes) followed by a 30 min incubation on ice. Supernatant was collected after centrifuging at 1000xg for 5 min. For the caspase activity assay, 10 μl of supernatant diluted with lysis buffer (1:25, 1:50, 1:100 to stay within linear range of luminescence measurements) was incubated with 10 μl of the luminogenic caspase glo 8 substrate (Promega #PRG8200) in a 384-white walled plate (Corning 3574) for 45 min at RT before measuring luminescence on a Spectramax-M5 plate reader.

Corrected rawintden - min (DR5 ECD)	normalized (binding intensity) (DR5 ECD)	Compound	also measured
507200	0.1237	EQPQYYLAEPWQLHGYFV	
320074	0.07803	ESTHQGSNFMNGTEGPNF	
470277	0.1147	FSNVTGVVRSPFEQPQYY	
360135	0.0878	HQGSNFMNGTEGPNFYVP	
1420533	0.3463	IDYYTLKPEVNNESTHQG	
890759	0.2172	LAEPWQLHGYFVFGPTGC	
827091	0.2016	MNGTEGPNFYVPFSNVTG	
1701232	0.4148	MQCSCGIDYYTLKPEVNN	
1657676	0.4041	PEGMQCSCGIDYYTLKPE	
1093768	0.2667	PWQLHGYFVFGPTGCNLE	
996384	0.2429	QYYLAEPWQLHGYFVFGP	
1340468	0.3268	RYIPEGMQCSCGIDYYTL	
337810	0.08236	SNFMNGTEGPNFYVPFSN	
517083	0.1261	SPFEQPQYYLAEPWQLHG	
1149984	0.2804	TGCNLERYIPEGMQCSCG	
294091	0.0717	VNNESTHQGSNFMNGTEG	
402567	0.09815	VTGVVRSPFEQPQYYLAE	
375649	0.09158	VVRSPFEQPQYYLAEPWQ	
870062	0.2121	YTLKPEVNNESTHQGSNF	
640840	0.1562	YVPFSNVTGVVRSPFEQP	

More lines, now with the values behind:

Compound	Corrected rawintden - min (DR5 ECD)	normalized (binding intensity) (DR5 ECD)	also measured
CC(NC(=O)C(NC(=O)OCc1ccccc1)C(C)C)C(=O)NC(CC(=O)O)C(=O)CF (stereo not drawn) [zVAD, reference compound] (Cbz-Val-Ala-Asp-CH2F; configuration not given here)			annexin V staining with pan-caspase inhibitor (HCT116 cells; cells expressing MPZ-ecto peptide): diminished the extent of annexin V staining
DR5 siRNA: siRNA oligonucleotides against DR5 (Dharmacon L-004448-00-0005) (guide AAGACCCUUGUGCUCGUUGUCUU; further chemistry not given here) [reference compound]			DR5 immunofluorescence signal ([1]; siRNA 48 hr, MPZ-GFP 24 hr): eliminated the DR5 signal; PARP cleavage and annexin V staining after DR5 knockdown (HCT116 cells; DR5 siRNA 48 hr, then MPZ-GFP overexpression 24 hr): significantly reduced PARP cleavage and annexin V staining
ETEREQPEGGRDAISIEHEA [MPZ-ecto peptide^Arom→Glu-eGFP, expressed GFP-tagged construct with all aromatic residues of the MPZ-ecto peptide mutated to Glu]			Pearson's correlation per cell of GFP-tagged peptide with DR5 [1]: 0.27 ± 0.03; Pearson's correlation per cell of GFP-tagged peptide with ERGIC [1]: 0.25 ± 0.03; Pearson's correlation per cell between DR5 and ERGIC [1]: 0.50 ± 0.03; Annexin V +, Sytox Blue + cells (HCT116 cells): 8.17% of cells; Annexin V +, Sytox Blue - cells (HCT116 cells): 4.89% of cells; Annexin V -, Sytox Blue - cells (HCT116 cells): 86.5% of cells
FGPTGCNLERYIPEGMQC	1562181	0.3809	
FTWREQPEGGRDAISIFHEA [MPZ-ecto peptide^Tyr→Glu-eGFP, expressed GFP-tagged construct with Tyr → Glu mutations in the MPZ-ecto peptide]			Pearson's correlation per cell of GFP-tagged peptide with DR5 [1]: 0.15 ± 0.03; Pearson's correlation per cell of GFP-tagged peptide with ERGIC [1]: 0.22 ± 0.05; Pearson's correlation per cell between DR5 and ERGIC [1]: 0.44 ± 0.04; Annexin V +, Sytox Blue + cells (HCT116 cells): 5.66% of cells; Annexin V +, Sytox Blue - cells (HCT116 cells): 3.64% of cells; Annexin V -, Sytox Blue - cells (HCT116 cells): 90.3% of cells
INS1			average fold change relative to empty ([2]; siDR5): 1.524 fold change; average fold change relative to empty ([2]; siNT): 2.0013 fold change
KPEVNNESTHQGSNFMNG	941789	0.2296	
LHGYFVFGPTGCNLERYI	1142815	0.2786	
NLERYIPEGMQCSCGIDY	395368	0.09639	
PNFYVPFSNVTGVVRSPF	624655	0.1523	
SCGIDYYTLKPEVNNEST	1488599	0.3629	
TEGPNFYVPFSNVTGVVR	1182345	0.2883	
YFVFGPTGCNLERYIPEG	490636	0.1196	
insGFP			norm RLUs ([2]; dilution 0.025): 1827.1 RLUs; norm RLUs ([2]; dilution 0.05): 3654.19 RLUs; norm RLUs ([2]; dilution 0.1): 8264.86 RLUs
